Consider 2 compounds from PMC4555095, “Inhibitory effects of magnolol and honokiol on human calcitonin aggregation” (Scientific Reports, 2015).

The assay concerns the target T1, Human calcitonin (hCT) (Homo sapiens, UniProt P01258).
T1 construct: gene CALCA; mature 32-residue calcitonin peptide cut from the calcitonin precursor; disulfide Cys-1/Cys-7, C terminus amidated; no tag
T1 sequence (P01258 85-116 limits assumed): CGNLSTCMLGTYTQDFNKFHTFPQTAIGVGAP
Kind of assay: isothermal titration calorimetry. Format: binding. The settings on record: read-out: Kb.

As to `C=CCc1ccc(O)c(-c2ccc(O)c(CC=C)c2)c1` [honokiol], the Kd turned out to be 6.49 µM.
With `C=CCc1ccc(O)c(-c2cc(CC=C)ccc2O)c1` [magnolol] the figure was 2.62 µM.
